Source: patent publication US9526717B2, “Composition for treating immune diseases containing daurinol compound as active ingredient” (THE CATHOLIC UNIVERSITY OF KOREA INDUSTRY-ACADEMIC …, priority 2013, dated 2016)

Columns and labels:
[1] = test system: animal model with collagen induced arthritis (CIA); assay: Expression of inflammatory cytokines in joints of CIA animals (tissue staining); type: in vivo, mouse; settings: injected intravenously, three weeks after
[2] = test system: animal model with induced inflammatory bowel disease; assay: Weight, disease activity index and length of intestine in animal model with inflammatory bowel disease; type: in vivo, mouse
Excerpt: For the confirmation of the effect of the daurinol compound of the present invention on the treatment of inflammatory bowel disease, the present inventors first constructed an animal model with induced inflammatory bowel disease. For the experimental model, C57BL/6(H-2kb) mice were used. For the construction of an animal model with induced inflammatory bowel disease, the mice were fed with 3.5% dextran sulfate sodium (DSS) and water for a week, thereby preparing an animal model with induced inflammatory bowel disease. The present inventors divided the experimental animals into a normal control group, a group of an animal model with induced inflammatory bowel disease, and a group of an animal model with induced inflammatory bowel disease treated with daurinol or a TNF-α inhibitor, and the group treated with daurinol was administered orally and intrarectally with daurinol (20 mg/kg) from the 4th day after the induction with the disease. […] Additionally, one of the features of inflammatory bowel disease is that the damage and shortening of the length of the large intestine are related to the disease activity index. For the analysis of the therapeutic effect of daurinol on the inflammatory bowel disease, the experimental animals were euthanased two weeks after the daurinol treatment, and the length of their intestines were measured.

[3] = test system: splenocytes of the animal model with lupus; assay: TNF-α level in splenocytes of animal model with lupus (ELISA); type: cell-based; settings: daurinol 1 μM and 5 μM, anti-CD3 0.5 μg/mL or LPS 100 ng/mL, three days
Method: (§1) Additionally, for the confirmation of the effect of controlling the formation of inflammatory cytokines, the splenocytes of the animal model with lupus were treated with daurinol (1 μM and 5 μM) and anti-CD3 (0.5 μg/mL) or LPS (100 ng/mL) for three days and the levels of IL-17 and TNF-α inflammatory cytokines were evaluated by ELISA assay.

[4] = test system: mouse with induced inflammatory bowel disease (IBD); assay: Inflammatory cytokines in the serum of IBD animal model (ELISA); type: in vivo; settings: IBD mice treated with daurinol
Excerpt: For the confirmation of the effect of the daurinol compound of the present invention on the treatment of inflammatory bowel disease, the present inventors first constructed an animal model with induced inflammatory bowel disease. For the experimental model, C57BL/6(H-2kb) mice were used. For the construction of an animal model with induced inflammatory bowel disease, the mice were fed with 3.5% dextran sulfate sodium (DSS) and water for a week, thereby preparing an animal model with induced inflammatory bowel disease.
The present inventors divided the experimental animals into a normal control group, a group of an animal model with induced inflammatory bowel disease, and a group of an animal model with induced inflammatory bowel disease treated with daurinol or a TNF-α inhibitor, and the group treated with daurinol was administered orally and intrarectally with daurinol (20 mg/kg) from the 4th day after the induction with the disease.
Sera were isolated from a mouse with induced inflammatory bowel disease (IBD), and mice treated with daurinol and TNF-α inhibitor, respectively. The levels of IL-17, IFNγ, IL-6, and the like, which are inflammatory cytokines, in the isolated sera were measured by ELISA assay.

[5] = test system: animal model with a collagen induced arthritis (CIA); assay: Evaluation of arthritis index in animal model with collagen induced arthritis; type: in vivo, mouse; settings: CIA DBA/1J mice, daurinol 20 mg/kg intravenously, total of 9 times, observed until 7th week
[6] = test system: splenocytes of an animal model with obesity arthritis; assay: Th17/Treg activity by flow cytometry in splenocytes of animal model with obesity arthritis; type: cell-based; settings: daurinol 1 μM, anti-CD3 0.5 μg/mL, 3 days
Method: Additionally, for the confirmation of controlling the activity of Th17/Treg cells, the splenocytes of an animal model with obesity arthritis were treated with daurinol (1 μM) and anti-CD3 (0.5 μg/mL) and cultured for 3 days, and the activity of Th17/Treg cells controlled by daurinol were evaluated via flow cytometry.

[7] = test system: regulatory T lymphocytes (Treg); assay: Regulatory T cells (Treg) by flow cytometer in allogenic reaction; type: cell-based, mouse; settings: control not treated 7.27%
Method: (§2) For the confirmation of the effect of the daurinol compound on the inhibition of T cell proliferation and the expression amount of IL-17, the CD4+ T cells (2×10^5 cells) of a normal recipient (Balb/c, responder), and the T cell-removed splenocytes (2×10^5 cells) derived from a recipient (homogenic) or the splenocytes (2×10^5 cells) derived from a donor (C57BL/6, stimulator, allogenic) exposed to irradiation were added to each well of a 96-well round bottom plate, mixed, and cultured in vitro. In particular, the T cell proliferation and the secretion of IL-17 when an allogenic reaction was untreated with daurinol or treated with daurinol at 0.5 μM, 2 μM, 10 μM, and 20 μM, respectively, were observed.
In this regard, for the confirmation of the effect of the daurinol compound according to the present invention on the activity of regulatory T lymphocytes (Treg), the present inventors analyzed the T cells isolated in Example <4-2> by a flow cytometer. That is, the T cells isolated in Example <4-2> were collected, washed with the FACs buffer, and reacted at 4° C. for the blocking of nonspecific binding for 5 minutes, and washed with the FACs buffer. […] Upon staining of the cells, the cells were washed with buffer and analyzed using the fluorescent-activated cell sorter (FACs).

[8] = test system: splenocytes of the animal model with lupus; assay: IL-17 level in splenocytes of animal model with lupus (ELISA); type: cell-based; settings: daurinol 1 μM and 5 μM, anti-CD3 0.5 μg/mL or LPS 100 ng/mL, three days
Method: as §1

[9] = test system: splenocytes of an animal model with lupus; assay: IgG antibody formation in splenocytes of animal model with lupus (ELISA); type: cell-based; settings: daurinol 1 μM and 5 μM, LPS 100 ng/mL, three days
Method: First, regarding the effect of controlling the autoantibody formation, the splenocytes of an animal model with lupus were treated with daurinol (1 μM and 5 μM) and LPS (100 ng/mL) for three days and the levels of IgG antibodies expressed thereof were evaluated by ELISA assay.

[10] = test system: CD4+ T cells; assay: IL-17 expression in allogenic reaction in vitro; type: cell-based, mouse; settings: daurinol 0.5, 2, 10 and 20 μM
Method: as §2

[11] = test system: mouse model with collagen induced arthritis (CIA); assay: Measurement of IgG, IgG1 and IgG2a in the serum of CIA mice by sandwich ELISA; type: in vivo
[12] = arthritis animals, daurinol administration

COc1cc2c(-c3ccc4c(c3)OCO4)c3c(cc2cc1O)COC3=O [daurinol]
expression level of IL-1beta in joints [1]: significantly reduced
expression level of IL-6 in joints [1]: significantly reduced
expression level of IL-17 in joints [1]: significantly reduced
expression level of TNF-α in joints [1]: significantly reduced
disease activity index (DAI) ([2]; DSS-induced IBD C57BL/6 mice, daurinol 20 mg/kg orally and intrarectally from 4th day): significant decrease
weight ([2]; DSS-induced IBD C57BL/6 mice, daurinol 20 mg/kg orally and intrarectally from 4th day, vs IBD group): significant improvement in weight
length of the intestine ([2]; DSS-induced IBD mice, two weeks after the daurinol treatment, vs IBD group): significant increase in the length of the intestine
expression of TNF-α (ELISA) [3]: inhibited the expression of IL-17 and TNF-α in a dose-dependent manner
level of IFNγ in serum (ELISA) [4]: significantly inhibits
level of IL-6 in serum (ELISA) [4]: significantly inhibits
level of IL-17 in serum (ELISA) [4]: significantly inhibits
arthritis index [5]: almost no increase in arthritis index
activity of Foxp3+ Treg cells (flow cytometry) [6]: induced the activity of Foxp3+ Treg cells
expression of IL-17 (Th17, flow cytometry) [6]: significantly inhibited the expression of IL-17
Treg cells ([7]; daurinol 1 μM): 9.18%
Treg cells ([7]; daurinol 5 μM): 16.6%
expression of IL-17 (ELISA) [8]: inhibited the expression of IL-17 and TNF-α in a dose-dependent manner
formation of IgG antibodies (ELISA) [9]: inhibited the formation of IgG antibodies in a dose-dependent manner
expression of IL-17 [10]: inhibited the expression of IL-17
expression of IgG in the serum ([11]; CIA mouse, three weeks after daurinol injection, 20 mg/kg i.v.): effectively reduced
IgG1 in the serum [11, 12]: significant decrease
IgG2a in the serum [11, 12]: significant decrease
